The subject of assay [1] is HTLV-1 LTR promoter transactivation by HTLV-1 Tax. Put plainly: Transactivation assay, HTLV-1 LTR luciferase reporter with HTLV-1 Tax. Conditions: HEK293 cells co-transfected with pHTLV1LTR-Luc, HTLV-1 Tax and the human ORF; relative luciferase activity 24 h post-transfection; positive if >=2 or <=0.5 and p<0.05. The assay is classed as cell-based. The source says: (§1) Twenty-four hours post-transfection, cells were washed three times with PBS, lysed and luciferase activities determined from two independent transfection experiments in triplicate. We computed a paired t-test to assess the difference of the means between samples with and without the human interactor. For a trial to be considered positive, the relative luciferase activities has to be >=2 or <=0.5, and the p-value of the t-test<0.05.
Expression vectors encoding human ORFs and HIV-1 Tat or HTLV-1 Tax proteins were tested in a transactivation reporter assay against reporter plasmids harboring HIV-1 or HTLV-1 viral promoter sequences cloned upstream of the luciferase reporter gene. […] Wherever not expressly specified, constructs used herein were generally made by sub-cloning entry clones from the ORFeome V3.1 into suitable destination vectors.
Background: In a reporter assay the amount or activity of a reporter protein is the signal.

Assay [2] concerns HTLV-1 transformed cell line (MT4). As to the kind of experiment: Quantitative RT-PCR of HTLV-1 mRNA in MT4 cells after γ-secretase (Notch pathway) inhibition. Type of assay: cell-based. Conditions: 1 μM, 48 hours, vs vehicle (0.5% DMSO), mRNA relative to GAPDH. The protocol: FIG. 9 illustrates relative HTLV1-HBZ, -Gag and -Tax mRNA expression following MT4 cells treatment with vehicle (0.5% DMSO) or 1 μM of γ-secretase inhibitor L685,458. Viral mRNA expression data are calculated relative to GAPDH mRNA expression data as 2̂(CT(GAPDH)-CT(HBZ/Gag/Tax)) over three times triplicate experiments for each gene.
HTLV-1 transformed cell line (MT4) from Dr. Douglas Richman (Harada et al. Science, 1985, col. 229, p. 563-566) was obtained through the AIDS Research and Reference Reagent Program, Division of AIDS, NIAID, NIH. MT4 cells were cultured in RPMI supplemented with 10% fetal bovine serum and antibiotics. MT-4 cells were treated for 48 hours with a γ-secretase inhibitor (L-685,458) (Shearman et al. Biochemistry, 2000, vol. 39, 8698-8704). at 1 μM or vehicle (0.5% DMSO). Total RNA were then isolated by Trizol method, subjected to Dnase treatment and cDNAs synthesized using the RevertAid First Strand cDNA Synthesis kit according to the manufacturer instructions (Fermentas). Quantitative Real-time PCR for GAPDH, HBZ, Gag and Tax expression was performed on StepOne instrument (Applied Biosystem) using SYBR green dye (Eurogentec). Viral mRNA expression data are calculated relative to GAPDH mRNA expression data as 2̂(CT(GAPDH)—CT(HBZ/Gag/Tax)) over three times triplicate experiments for each gene, and differences were assessed through one-tailed Student's t-test.
To directly assess the involvement of the Notch pathway in viral infection, we treated HTLV-1 transformed cell line (MT4) with a γ-secretase inhibitor (GSI) (L-685,458) and tested whether inhibition of the Notch pathway could influence HTLV-1 expression in MT4 cell line.

Assay [3] has as its system HIV-1 LTR promoter transactivation by HIV-1 Tat. As to the kind of experiment: Transactivation assay, HIV-1 LTR luciferase reporter with HIV-1 Tat. Type of assay: cell-based. The following applies: HEK293 cells co-transfected with pHIV1LTR-Luc, HIV-1 Tat and the human ORF; relative luciferase activity 24 h post-transfection; positive if >=2 or <=0.5 and p<0.05.
Excerpt: as §1, with “The plasmids pHIV1LTR-Luc or pHTLV1LTR-Luc containing a luciferase reporter gene under the control of the HIV-1 or HTLV-1 LTR promoters and plasmids expressing either HIV-1 Tat or HTLV-1 Tax and each human ORF found to interact with viral proteins were transfected into 10^4 HEK293 cells using the calcium phosphate method. Twenty-four” for “Twenty-four”
Many HIV/HTLV-human interactions in our data set (130/212) involved the retroviral transactivator proteins HTLV-1 Tax (57/212), HTLV-2 Tax2 (49/212), HIV-1 Tat (10/212) and HIV-2 Tat (14/212). Human proteins interacting with viral transactivators likely influence Tat or Tax transactivation. Expression vectors encoding human ORFs and HIV-1 Tat or HTLV-1 Tax proteins were tested in a transactivation reporter assay against reporter plasmids harboring HIV-1 or HTLV-1 viral promoter sequences cloned upstream of the luciferase reporter gene. In the controls Tat or Tax respectively activated HIV or HTLV LTR-directed gene expression. Co-transfection of interacting human ORFs identified 71 proteins (54% of the 131 human targets in our data set) that regulated HIV (26.7% of targets), HTLV (37.4% of targets) or both (9.9% of targets) LTR promoter activation by Tat or Tax (see Tables 7 and 8; Table 13 below containing quantitative data on the regulation of transactivation). Wherever not expressly specified, constructs used herein were generally made by sub-cloning entry clones from the ORFeome V3.1 into suitable destination vectors.

In the next assay the test system is TRAF2. Put plainly: Western blot of HIV-1 Gag induced TRAF2 degradation in HEK293T cells. The assay is classed as cell-based, human. The text has this: FIG. 8 illustrates (A) Western-blotting of HEK293T cell extracts transfected with expressing vectors for GST-TRAF2 or truncated mutants deltaTRAF2 and deltaRING and p55 GAG/GFP, as indicated. Cell extracts were immunobloted with anti-GST, anti-GFP and anti-actin antibodies. (B) Western-blotting of HEK293T cells transfected with expressing vectors for GST-TRAF2 or GST-deltaRING truncated mutant, p55 GAG/GFP and Myc-Ubiquitin, as indicated. Cell extracts were immunobloted with anti-GST, anti-Myc and anti-actin antibodies. (C) Cells were pretreated with the cathepsin B inhibitor CA-074Me (10 μM) or the proteasomal inhibitor MG-132 (1 μM) for 24 H. Cell lysates were analysed as in (B).
To further corroborate that HIV Gag protein targets TRAF2 for proteasomal degradation, we first co-expressed in HEK293 cells HIV-1 Gag and TRAF2 or its truncation mutants lacking the TRAF domain (ΔTRAF) required for upstream signaling, or lacking the RING domain (ΔRING) required for E3 ubiquitin ligase function and downstream signaling. […]
In the presence of HIV-1 Gag we observed reduction of TRAF2 and ΔTRAF protein levels but not with the RING domain truncated mutant (FIG. 8A). To test whether TRAF2-E3 ubiquitin ligase activity was affected by HIV1 Gag, we next co-transfected a Myc-Ubiquitin expressing vector and evaluated the levels of Myc-tagged cellular ubiquitylated proteins by immunoblotting. […]
On the technique in general: A western blot detects proteins with antibodies after separation by electrophoresis.

Peptide text beside a SMILES is read from it. * marks the point of attachment. Cbz = O=C(OCc1ccccc1)*

On to “FXR2: human host interactor protein, Gene ID 9513, expressed from transfected ORF vector”, for which the HTLV_LTR transactiv. in assay [1] was determined as 0.38 fold change.
For `CC(C)C[C@H](NC(=O)[C@H](Cc1ccccc1)C[C@@H](O)[C@H](Cc1ccccc1)NC(=O)OC(C)(C)C)C(=O)N[C@@H](Cc1ccccc1)C(N)=O` [L-685,458], the “HTLV-1 Tax1 expression” value in assay [2] (p<0.003) was “significantly lowers”. For the same compound, the “HTLV-1 Gag expression” value in assay [2] (p<0.04) is “significantly lowers”. Further, in assay [2] (p<2.1E-5), the “HTLV-1 HBZ expression” value is given as “significantly lowers”.
In assay [1], “OTX2: human host interactor protein, Gene ID 5015, expressed from transfected ORF vector” registered an HTLV_LTR transactiv. of 7.37 fold change.
Turning to “HOXA3: human host interactor protein, Gene ID 3200, expressed from transfected ORF vector”, the HIV_LTR transactiv. in assay [3] is given as 0.29 fold change. In addition, the HTLV_LTR transactiv. in assay [1] was found to be 0.25 fold change.
In assay [1], “BHLHB2: human host interactor protein, Gene ID 8553, expressed from transfected ORF vector” had an HTLV_LTR transactiv. of 0.20 fold change.
The compound “CRX: human host interactor protein, Gene ID 1406, expressed from transfected ORF vector” yielded an HIV_LTR transactiv. in assay [3] of 0.24 fold change.
As to `CC(C)C[C@@H](C=O)NC(=O)[C@H](CC(C)C)NC(=O)[C@H](CC(C)C)NC(=O)OCc1ccccc1` [MG132] (Cbz-Leu-Leu-Leu-aldehyde), the “HIV1-Gag induced degradation of TRAF2” value with TRAF2 (FIG. 6) is reported as “not inhibited”. For the same compound, in the assay on TRAF2 (HEK293T cells pretreated with 1 μM for 24 H, FIG. 8C), the “HIV-1 Gag induced degradation of TRAF2” value is reported as “could be blocked”.
In turn, “KCTD1: human host interactor protein, Gene ID 284252, expressed from transfected ORF vector” showed an HTLV_LTR transactiv. in assay [1] of 0.42 fold change.
The same measure, in the same setting: the same measure for “PSMF1: human host interactor protein, Gene ID 9491, expressed from transfected ORF vector”: 14.83 fold change.
In turn, “DVL2: human host interactor protein, Gene ID 1856, expressed from transfected ORF vector” displayed an HIV_LTR transactiv. in assay [3] of 0.40 fold change.
For the compound “NOS3: human host interactor protein, Gene ID 4846, expressed from transfected ORF vector”, the HTLV_LTR transactiv. in assay [1] was determined as 0.45 fold change.
For the compound “PCBP1: human host interactor protein, Gene ID 5093, expressed from transfected ORF vector”, the HTLV_LTR transactiv. in assay [1] was determined as 0.44 fold change.
For “ZMAT1: human host interactor protein, Gene ID 84460, expressed from transfected ORF vector”, in assay [3], the HIV_LTR transactiv. amounted to 0.20 fold change.
The same measure, in the same setting: as for “LOC91661: human host interactor protein, Gene ID 91661, expressed from transfected ORF vector”, the figure is 0.16 fold change.
In assay [1], “C8orf32: human host interactor protein, Gene ID 55093, expressed from transfected ORF vector” gave an HTLV_LTR transactiv. of 0.26 fold change.
Same read-out and setting: the same measure for “HOXB9: human host interactor protein, Gene ID 3219, expressed from transfected ORF vector”: 3.69 fold change.
“UBE2I: human host interactor protein, Gene ID 7329, expressed from transfected ORF vector” gave an HIV_LTR transactiv. in assay [3] of 3.34 fold change.

Values taken from US20120090043A1, “TARGETS FOR RETROVIRUS ASSOCIATED DISEASES” (priority 2009, published 2012).
